Experimental findings from patent US9346809B2 (LEO PHARMA A/S, priority 2009, dated 2016) are described below.

Common to all, as to type: biochemical
Experiment [1] concerns the target T1, JAK1 (aa 850-1154, catalytic domain, GST-tag) (Homo sapiens, UniProt P23458).
T1 construct: JAK1 (aa 850-1154) and TYK2 (aa 871-1187) are expressed with an N-terminally fused GST-tag; GST (N); purchased Carna Biosciences, Inc; host or cells: baculovirus expression system
Description: JAK kinase assay (HTRF, phosphorylation of TK substrate-biotin), JAK1. Particulars: ATP at Km (7 μM); read-out: JAK1 kinase inhibitory activity (EC50 indicator). The gist of the method:
(§1)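 EC50 values come from HTRF signal of phospho-peptide detected by STK Ab Cryptate and Streptavidin-XL665 after overnight incubation. Reactions ran 20-30 min at RT in Hepes pH 7.0, 0.01% BSA, 1 mM DTT, with ATP at Km: 7, 4, 2 and 13 μM for JAK1, JAK2, JAK3, TYK2.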
In general terms: In TR-FRET formats the signal depends on donor and acceptor labels being close together.

Experiment [2] concerns the target T2, JAK2 (catalytic domain, His-tag) (Homo sapiens, UniProt O60674).
T2 construct: All four purified enzymes contain only the catalytic domain; His (N); purchased Carna Biosciences, Inc; host or cells: baculovirus expression system
Put plainly: JAK kinase assay (HTRF, phosphorylation of TK substrate-biotin), JAK2. The note with it: ATP at Km (4 μM); read-out: JAK2 kinase inhibitory activity (EC50 indicator). A digest of the protocol: as §1

Experiment [3] has as its target T3, JAK3 (catalytic domain, His-tag) (Homo sapiens, UniProt P52333).
T3 construct: All four purified enzymes contain only the catalytic domain; His (N); purchased Carna Biosciences, Inc; host or cells: baculovirus expression system
Put plainly: JAK kinase assay (HTRF, phosphorylation of TK substrate-biotin), JAK3. The note with it: ATP at Km (2 μM); read-out: JAK3 kinase inhibitory activity (EC50 indicator). A digest of the protocol: as §1

Experiment [4] deals with T4, TYK2 (aa 871-1187, catalytic domain, GST-tag) (Homo sapiens, UniProt P29597).
T4 construct: JAK1 (aa 850-1154) and TYK2 (aa 871-1187) are expressed with an N-terminally fused GST-tag; GST (N); purchased Carna Biosciences, Inc; host or cells: baculovirus expression system
T4 sequence (P29597 871-1187): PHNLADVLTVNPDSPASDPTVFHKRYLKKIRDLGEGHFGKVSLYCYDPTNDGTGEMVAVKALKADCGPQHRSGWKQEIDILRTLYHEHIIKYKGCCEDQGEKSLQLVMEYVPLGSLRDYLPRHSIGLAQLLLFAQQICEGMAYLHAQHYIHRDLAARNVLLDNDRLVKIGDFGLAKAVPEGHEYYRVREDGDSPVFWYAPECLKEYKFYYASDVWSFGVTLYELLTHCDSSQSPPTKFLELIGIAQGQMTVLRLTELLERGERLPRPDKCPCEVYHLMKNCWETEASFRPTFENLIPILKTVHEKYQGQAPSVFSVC
Put plainly: JAK kinase assay (HTRF, phosphorylation of TK substrate-biotin), TYK2. The note with it: ATP at Km (13 μM); read-out: TYK2 kinase inhibitory activity (EC50 indicator). The gist of the method: as §1

The term EC50 denotes the concentration needed to bring the measured effect to its halfway point.

Structures are written as SMILES.

T1 sequence (P23458 850-1154): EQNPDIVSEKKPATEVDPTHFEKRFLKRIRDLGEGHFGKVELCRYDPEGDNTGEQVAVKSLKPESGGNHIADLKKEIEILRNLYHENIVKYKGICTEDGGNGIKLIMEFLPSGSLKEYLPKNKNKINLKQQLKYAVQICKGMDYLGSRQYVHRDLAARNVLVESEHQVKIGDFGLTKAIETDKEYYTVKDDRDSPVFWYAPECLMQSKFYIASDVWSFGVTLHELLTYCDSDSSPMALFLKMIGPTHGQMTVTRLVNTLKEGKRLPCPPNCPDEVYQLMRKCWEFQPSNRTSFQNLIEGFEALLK
T3 sequence (P52333 822-1111 limits assumed): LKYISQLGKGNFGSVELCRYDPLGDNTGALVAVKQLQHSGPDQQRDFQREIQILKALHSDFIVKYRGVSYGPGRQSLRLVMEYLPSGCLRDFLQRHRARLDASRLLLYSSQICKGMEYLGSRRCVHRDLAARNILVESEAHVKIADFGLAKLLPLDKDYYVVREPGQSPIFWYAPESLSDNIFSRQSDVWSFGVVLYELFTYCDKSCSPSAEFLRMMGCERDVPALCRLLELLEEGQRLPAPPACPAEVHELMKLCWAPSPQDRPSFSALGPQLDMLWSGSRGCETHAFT
T2 sequence (O60674 849-1124 limits assumed): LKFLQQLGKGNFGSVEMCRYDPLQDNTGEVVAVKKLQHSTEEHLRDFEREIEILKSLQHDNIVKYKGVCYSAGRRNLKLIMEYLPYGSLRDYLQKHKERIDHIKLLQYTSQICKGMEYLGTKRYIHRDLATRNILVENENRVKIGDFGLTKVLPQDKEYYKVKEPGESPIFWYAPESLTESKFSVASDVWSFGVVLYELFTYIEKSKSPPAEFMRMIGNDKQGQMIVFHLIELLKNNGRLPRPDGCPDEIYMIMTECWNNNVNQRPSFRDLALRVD

In the case of `N#Cc1ccc(CC(=O)N2[C@@H]3CC[C@@H]2CN(c2ncnc4[nH]ccc24)C3)cc1` [Example 180, 4-{2-Oxo-2-[3-(7H-pyrrolo[2,3-d]pyrimidin-4-yl)-3,8-diaza-bicyclo[3.2.1]oct-8-yl]-ethyl}-benzonitrile], the 50% effective concentration (EC50) is 100 to 500 nM in experiment [1], 100 to 500 nM in experiment [2], 100 to 500 nM in experiment [3] and over 500 nM in experiment [4].
Consider `O=C(CCC(F)(F)F)N1[C@@H]2CC[C@H]1CN(c1ncnc3[nH]ccc13)C2` [Example 181, 4,4,4-Trifluoro-1-[3-(7H-pyrrolo[2,3-d]pyrimidin-4-yl)-3,8-diaza-bicyclo[3.2.1]oct-8-yl]-butan-1-one], for which the concentration giving a half-maximal response (EC50) in experiment [1] is under 100 nM; in experiment [2] it was under 100 nM; in experiment [3], 100 to 500 nM; in experiment [4] it was 100 to 500 nM.
`N#CCCC(=O)N1[C@@H]2CC[C@@H]1CN(c1ncnc3[nH]ccc13)C2` [Example 182, 4-Oxo-4-[3-(7H-pyrrolo[2,3-d]pyrimidin-4-yl)-3,8-diaza-bicyclo[3.2.1]oct-8-yl]-butyronitrile]: the EC50 in experiment [1] was under 100 nM; in experiment [2], under 100 nM; in experiment [3], 100 to 500 nM; in experiment [4], 100 to 500 nM.
For the compound `CS(=O)(=O)c1ccc(C(=O)N2CCN(c3ncnc4[nH]ccc34)CC23CC3)c(F)c1` [Example 183, (2-Fluoro-4-methanesulfonyl-phenyl)-[7-(7H-pyrrolo[2,3-d]pyrimidin-4-yl)-4,7-diaza-spiro[2.5]oct-4-yl]-methanone], the 50% effective concentration (EC50) in experiment [1], in experiment [2], in experiment [3] and in experiment [4] was under 100 nM throughout.
Take `Cc1ccc2[nH]c(C(=O)N3CCN(c4ncnc5[nH]ccc45)CC34CC4)cc2c1` [Example 184, (5-Methyl-1H-indol-2-yl)-[7-(7H-pyrrolo[2,3-d]pyrimidin-4-yl)-4,7-diaza-spiro[2.5]oct-4-yl]-methanone]: the half-maximal effective concentration (EC50) in experiment [1] is under 100 nM; in experiment [2], under 100 nM; in experiment [3], under 100 nM; in experiment [4], 100 to 500 nM.
On to `Cc1c(C(=O)N2CCN(c3ncnc4[nH]ccc34)CC23CC3)[nH]c2ccc(F)cc12` [Example 185, (5-Fluoro-3-methyl-1H-indol-2-yl)-[7-(7H-pyrrolo[2,3-d]pyrimidin-4-yl)-4,7-diaza-spiro[2.5]oct-4-yl]-methanone], for which the EC50 in experiment [1] was 100 to 500 nM; in experiment [2] it was 100 to 500 nM; in experiment [3], over 500 nM; in experiment [4] it was over 500 nM.
With `NS(=O)(=O)c1ccc2[nH]c(C(=O)N3CCN(c4ncnc5[nH]ccc45)CC34CC4)cc2c1` [Example 186, 2-[7-(7H-Pyrrolo[2,3-d]pyrimidin-4-yl)-4,7-diaza-spiro[2.5]octane-4-carbonyl]-1H-indole-5-sulfonic acid amide], the EC50 in experiment [1], in experiment [2], in experiment [3] and in experiment [4] was under 100 nM in each case.
Regarding `Cn1c(C(=O)N2CCN(c3ncnc4[nH]ccc34)CC23CC3)ccc1S(N)(=O)=O` [Example 187, 1-Methyl-5-[7-(7H-pyrrolo[2,3-d]pyrimidin-4-yl)-4,7-diaza-spiro[2.5]octane-4-carbonyl]-1H-pyrrole-2-sulfonic acid amide], the EC50 in experiment [1], in experiment [2], in experiment [3] and in experiment [4] was under 100 nM in each case.
As for `Cn1cc(S(N)(=O)=O)cc1C(=O)N1CCN(c2ncnc3[nH]ccc23)CC12CC2` [Example 188, 1-Methyl-5-[7-(7H-pyrrolo[2,3-d]pyrimidin-4-yl)-4,7-diaza-spiro[2.5]octane-4-carbonyl]-1H-pyrrole-3-sulfonic acid amide], the half-maximal effective concentration (EC50) in experiment [1], in experiment [2], in experiment [3] and in experiment [4] was under 100 nM in each case.
Take `CN(C)S(=O)(=O)c1ccc(C(=O)N2CCN(c3ncnc4[nH]ccc34)CC23CC3)cc1` [Example 189, N,N-Dimethyl-4-[7-(7H-pyrrolo[2,3-d]pyrimidin-4-yl)-4,7-diaza-spiro[2.5]octane-4-carbonyl]-benzenesulfonamide]: the half-maximal effective concentration (EC50) in experiment [1] is under 100 nM; in experiment [2], under 100 nM; in experiment [3], 100 to 500 nM; in experiment [4], 100 to 500 nM.
On to `O=C(Cc1cccs1)N1CCN(c2ncnc3[nH]ccc23)CC12CC2` [Example 190, 1-[7-(7H-Pyrrolo[2,3-d]pyrimidin-4-yl)-4,7-diaza-spiro[2.5]oct-4-yl]-2-thiophen-2-yl-ethanone], for which the EC50 in experiment [1] was under 100 nM; in experiment [2], under 100 nM; in experiment [3], under 100 nM; in experiment [4], 100 to 500 nM.
Regarding `NS(=O)(=O)c1ccc(CC(=O)N2CCN(c3ncnc4[nH]ccc34)CC23CC3)cc1` [Example 191, 4-{2-Oxo-2-[7-(7H-pyrrolo[2,3-d]pyrimidin-4-yl)-4,7-diaza-spiro[2.5]oct-4-yl]-ethyl}-benzenesulfonamide], the EC50 is under 100 nM in experiment [1], under 100 nM in experiment [2], under 100 nM in experiment [3] and over 500 nM in experiment [4].
Consider `O=C(c1cc2cc(F)cc(F)c2[nH]1)N1CCN(c2ncnc3[nH]ccc23)CC12CC2` [Example 192, (5,7-Difluoro-1H-indol-2-yl)-[7-(7H-pyrrolo[2,3-d]pyrimidin-4-yl)-4,7-diaza-spiro[2.5]oct-4-yl]-methanone], for which the concentration giving a half-maximal response (EC50) in experiment [1], in experiment [2], in experiment [3] and in experiment [4] was under 100 nM each time.
In the case of `N#Cc1ccc(C(=O)N2CCN(c3ncnc4[nH]ccc34)CC23CC3)s1` [Example 193, 5-[7-(7H-Pyrrolo[2,3-d]pyrimidin-4-yl)-4,7-diaza-spiro[2.5]octane-4-carbonyl]-thiophene-2-carbonitrile], the 50% effective concentration (EC50) in experiment [1], in experiment [2], in experiment [3] and in experiment [4] was under 100 nM each time.
On to `CS(=O)(=O)c1ccc(C(=O)N2CCN(c3ncnc4[nH]ccc34)CC23CC3)cc1N1CCCC1` [Example 194, (4-Methanesulfonyl-3-pyrrolidin-1-yl-phenyl)-[7-(7H-pyrrolo[2,3-d]pyrimidin-4-yl)-4,7-diaza-spiro[2.5]oct-4-yl]-methanone], for which the EC50 in experiment [1] is under 100 nM; in experiment [2], under 100 nM; in experiment [3], 100 to 500 nM; in experiment [4], over 500 nM.
Turning to `NS(=O)(=O)c1ccc(CC(=O)N2CCN(c3ncnc4[nH]ccc34)CC23CC3)s1` [Example 195, 5-{2-Oxo-2-[7-(7H-pyrrolo[2,3-d]pyrimidin-4-yl)-4,7-diaza-spiro[2.5]oct-4-yl]-ethyl}-thiophene-2-sulfonic acid amide], the concentration giving a half-maximal response (EC50) in experiment [1] was under 100 nM; in experiment [2], under 100 nM; in experiment [3] it was under 100 nM; in experiment [4], 100 to 500 nM.
With `CC(C)S(=O)(=O)c1ccc(C(=O)N2CCN(c3ncnc4[nH]ccc34)CC23CC3)cc1` [Example 196, [4-(Propane-2-sulfonyl)-phenyl]-[7-(7H-pyrrolo[2,3-d]pyrimidin-4-yl)-4,7-diaza-spiro[2.5]oct-4-yl]-methanone], the EC50 in experiment [1] was under 100 nM; in experiment [2], under 100 nM; in experiment [3], 100 to 500 nM; in experiment [4], over 500 nM.
